In ChEMBL document CHEMBL1671626, “In vitro profiling of ceftaroline against a collection of recent bacterial clinical isolates from across the United States” (2008):

Legend:
Assay type in all cases: functional
Acinetobacter [1] = assay: Antibacterial activity against imipenem-susceptible Acinetobacter by CLSI M7-A7 broth microdilution method
Morganella morganii [2] = assay: Antibacterial activity against ceftazidime-susceptible Morganella morganii by CLSI M7-A7 broth microdilution method
Proteus mirabilis [3] = assay: Antibacterial activity against ceftazidime-susceptible Proteus mirabilis assessed as resistant isolates by CLSI M7-A7 broth microdilution method
Citrobacter freundii [4] = assay: Antibacterial activity against ceftazidime-nonsusceptible Citrobacter freundii by CLSI M7-A7 broth microdilution method
Providencia sp. [5] = assay: Antibacterial activity against ceftazidime-susceptible Providencia sp. assessed as resistant isolates by CLSI M7-A7 broth microdilution method
Enterobacteriaceae [6] = assay: Antibacterial activity against ceftazidime-susceptible Enterobacteriaceae assessed as susceptible isolates by CLSI M7-A7 broth microdilution method
Enterobacter cloacae [7] = assay: Antibacterial activity against ceftazidime-susceptible Enterobacter cloacae by CLSI M7-A7 broth microdilution method
Citrobacter freundii [8] = assay: Antibacterial activity against ceftazidime-nonsusceptible Citrobacter freundii assessed as susceptible isolates by CLSI M7-A7 broth microdilution method
Enterobacteriaceae [9] = assay: Antibacterial activity against ceftazidime-susceptible Enterobacteriaceae assessed as resistant isolates by CLSI M7-A7 broth microdilution method
Klebsiella pneumoniae [10] = assay: Antibacterial activity against ceftazidime-nonsusceptible Klebsiella pneumoniae by CLSI M7-A7 broth microdilution method
Haemophilus influenzae [11] = assay: Antibacterial activity against beta lactamase-positive Haemophilus influenzae assessed as susceptible isolates by CLSI M7-A7 broth microdilution method
Klebsiella pneumoniae [12] = assay: Antibacterial activity against ceftazidime-nonsusceptible Klebsiella pneumoniae assessed as resistant isolates by CLSI M7-A7 broth microdilution method
Acinetobacter [13] = assay: Antibacterial activity against multidrug-resistant Acinetobacter assessed as susceptible isolates by CLSI M7-A7 broth microdilution method
Proteus mirabilis [14] = assay: Antibacterial activity against ceftazidime-susceptible Proteus mirabilis assessed as susceptible isolates by CLSI M7-A7 broth microdilution method
Enterobacter cloacae [15] = assay: Antibacterial activity against ceftazidime-nonsusceptible Enterobacter cloacae assessed as resistant isolates by CLSI M7-A7 broth microdilution method
Citrobacter freundii [16] = assay: Antibacterial activity against ceftazidime-susceptible Citrobacter freundii by CLSI M7-A7 broth microdilution method
Enterobacter cloacae [17] = assay: Antibacterial activity against ceftazidime-susceptible Enterobacter cloacae assessed as resistant isolates by CLSI M7-A7 broth microdilution method
Morganella morganii [18] = assay: Antibacterial activity against ceftazidime-susceptible Morganella morganii assessed as resistant isolates by CLSI M7-A7 broth microdilution method
Citrobacter freundii [19] = assay: Antibacterial activity against ceftazidime-susceptible Citrobacter freundii assessed as susceptible isolates by CLSI M7-A7 broth microdilution method
Enterobacteriaceae [20] = assay: Antibacterial activity against ceftazidime-nonsusceptible Enterobacteriaceae assessed as resistant isolates by CLSI M7-A7 broth microdilution method
Serratia marcescens [21] = assay: Antibacterial activity against ceftazidime-susceptible Serratia marcescens assessed as resistant isolates by CLSI M7-A7 broth microdilution method
Serratia marcescens [22] = assay: Antibacterial activity against ceftazidime-susceptible Serratia marcescens by CLSI M7-A7 broth microdilution method
Citrobacter freundii [23] = assay: Antibacterial activity against ceftazidime-susceptible Citrobacter freundii assessed as resistant isolates by CLSI M7-A7 broth microdilution method
Enterobacteriaceae [24] = assay: Antibacterial activity against ceftazidime-nonsusceptible Enterobacteriaceae assessed as susceptible isolates by CLSI M7-A7 broth microdilution method
Citrobacter freundii [25] = assay: Antibacterial activity against ceftazidime-nonsusceptible Citrobacter freundii assessed as resistant isolates by CLSI M7-A7 broth microdilution method
Escherichia coli [26] = assay: Antibacterial activity against ceftazidime-susceptible Escherichia coli assessed as resistant isolates by CLSI M7-A7 broth microdilution method
Acinetobacter [27] = assay: Antibacterial activity against multidrug-resistant Acinetobacter assessed as resistant isolates by CLSI M7-A7 broth microdilution method
Acinetobacter [28] = assay: Antibacterial activity against multidrug-resistant Acinetobacter by CLSI M7-A7 broth microdilution method
Enterobacter cloacae [29] = assay: Antibacterial activity against ceftazidime-nonsusceptible Enterobacter cloacae by CLSI M7-A7 broth microdilution method
Providencia sp. [30] = assay: Antibacterial activity against ceftazidime-susceptible Providencia sp. by CLSI M7-A7 broth microdilution method
Enterobacteriaceae [31] = assay: Antibacterial activity against ceftazidime-susceptible Enterobacteriaceae by CLSI M7-A7 broth microdilution method
Acinetobacter [32] = assay: Antibacterial activity against imipenem-susceptible Acinetobacter assessed as resistant isolates by CLSI M7-A7 broth microdilution method
Haemophilus influenzae [33] = assay: Antibacterial activity against beta lactamase-negative Haemophilus influenzae by CLSI M7-A7 broth microdilution method
Escherichia coli [34] = assay: Antibacterial activity against ceftazidime-nonsusceptible Escherichia coli assessed as resistant isolates by CLSI M7-A7 broth microdilution method
Morganella morganii [35] = assay: Antibacterial activity against ceftazidime-susceptible Morganella morganii assessed as susceptible isolates by CLSI M7-A7 broth microdilution method
Escherichia coli [36] = assay: Antibacterial activity against ceftazidime-susceptible Escherichia coli assessed as susceptible isolates by CLSI M7-A7 broth microdilution method
Enterobacteriaceae [37] = assay: Antibacterial activity against ceftazidime-nonsusceptible Enterobacteriaceae by CLSI M7-A7 broth microdilution method
Providencia sp. [38] = assay: Antibacterial activity against ceftazidime-susceptible Providencia sp. assessed as susceptible isolates by CLSI M7-A7 broth microdilution method
Klebsiella pneumoniae [39] = assay: Antibacterial activity against ceftazidime-susceptible Klebsiella pneumoniae by CLSI M7-A7 broth microdilution method
Escherichia coli [40] = assay: Antibacterial activity against ceftazidime-nonsusceptible Escherichia coli by CLSI M7-A7 broth microdilution method
Klebsiella pneumoniae [41] = assay: Antibacterial activity against ceftazidime-nonsusceptible Klebsiella pneumoniae assessed as susceptible isolates by CLSI M7-A7 broth microdilution method
Enterobacter cloacae [42] = assay: Antibacterial activity against ceftazidime-susceptible Enterobacter cloacae assessed as susceptible isolates by CLSI M7-A7 broth microdilution method
Proteus mirabilis [43] = assay: Antibacterial activity against ceftazidime-susceptible Proteus mirabilis by CLSI M7-A7 broth microdilution method
Klebsiella pneumoniae [44] = assay: Antibacterial activity against ceftazidime-susceptible Klebsiella pneumoniae assessed as resistant isolates by CLSI M7-A7 broth microdilution method
Haemophilus influenzae [45] = assay: Antibacterial activity against beta lactamase-positive Haemophilus influenzae by CLSI M7-A7 broth microdilution method
Acinetobacter [46] = assay: Antibacterial activity against imipenem-susceptible Acinetobacter assessed as susceptible isolates by CLSI M7-A7 broth microdilution method
Escherichia coli [47] = assay: Antibacterial activity against ceftazidime-susceptible Escherichia coli by CLSI M7-A7 broth microdilution method
Escherichia coli [48] = assay: Antibacterial activity against ceftazidime-nonsusceptible Escherichia coli assessed as susceptible isolates by CLSI M7-A7 broth microdilution method

Sequence: GENTAMICIN
- MIC50 (Acinetobacter [1]): 1 µg/mL
- MIC90 (Acinetobacter [1]): > 16 µg/mL
- MIC50 (Morganella morganii [2]): 0.5 µg/mL
- MIC90 (Morganella morganii [2]): 4 µg/mL
- Activity (Proteus mirabilis [3]): 8.6%
- MIC50 (Citrobacter freundii [4]): 0.5 µg/mL
- MIC90 (Citrobacter freundii [4]): 16 µg/mL
- Activity (Providencia sp. [5]): 14.8%
- Activity (Enterobacteriaceae [6]): 92.6%
- MIC50 (Enterobacter cloacae [7]): 0.25 µg/mL
- MIC90 (Enterobacter cloacae [7]): 0.5 µg/mL
- Activity (Citrobacter freundii [8]): 81.8%
- Activity (Enterobacteriaceae [9]): 5.9%
- MIC50 (Klebsiella pneumoniae [10]): 8 µg/mL
- MIC90 (Klebsiella pneumoniae [10]): > 16 µg/mL
- Activity (Haemophilus influenzae [11]): 0%
- Activity (Klebsiella pneumoniae [12]): 43.9%
- Activity (Acinetobacter [13]): 18.8%
- Activity (Proteus mirabilis [14]): 84.5%
- Activity (Enterobacter cloacae [15]): 17.1%
- MIC50 (Citrobacter freundii [16]): 0.5 µg/mL
- MIC90 (Citrobacter freundii [16]): 8 µg/mL
- Activity (Enterobacter cloacae [17]): 2%
- Activity (Morganella morganii [18]): 8.8%
- Activity (Citrobacter freundii [19]): 88%
- Activity (Enterobacteriaceae [20]): 40.5%
- Activity (Serratia marcescens [21]): 1.7%
- MIC50 (Serratia marcescens [22]): 0.5 µg/mL
- MIC90 (Serratia marcescens [22]): 1 µg/mL
- Activity (Citrobacter freundii [23]): 10%
- Activity (Enterobacteriaceae [24]): 52.3%
- Activity (Citrobacter freundii [25]): 18.2%
- Activity (Escherichia coli [26]): 7.5%
- Activity (Acinetobacter [27]): 75%
- MIC50 (Acinetobacter [28]): > 16 µg/mL
- MIC90 (Acinetobacter [28]): > 16 µg/mL
- MIC50 (Enterobacter cloacae [29]): 0.5 µg/mL
- MIC90 (Enterobacter cloacae [29]): 16 µg/mL
- MIC50 (Providencia sp. [30]): 2 µg/mL
- MIC90 (Providencia sp. [30]): > 16 µg/mL
- MIC50 (Enterobacteriaceae [31]): 0.5 µg/mL
- MIC90 (Enterobacteriaceae [31]): 2 µg/mL
- Activity (Acinetobacter [32]): 21.3%
- MIC50 (Haemophilus influenzae [33]): 1 µg/mL
- MIC90 (Haemophilus influenzae [33]): 2 µg/mL
- Activity (Escherichia coli [34]): 50.8%
- Activity (Morganella morganii [35]): 91.2%
- Activity (Escherichia coli [36]): 91.9%
- MIC50 (Enterobacteriaceae [37]): 4 µg/mL
- MIC90 (Enterobacteriaceae [37]): > 16 µg/mL
- Activity (Providencia sp. [38]): 74.1%
- MIC50 (Klebsiella pneumoniae [39]): 0.25 µg/mL
- MIC90 (Klebsiella pneumoniae [39]): 0.5 µg/mL
- MIC50 (Escherichia coli [40]): 16 µg/mL
- MIC90 (Escherichia coli [40]): > 16 µg/mL
- Activity (Klebsiella pneumoniae [41]): 43.9%
- Activity (Enterobacter cloacae [42]): 96%
- MIC50 (Proteus mirabilis [43]): 1 µg/mL
- MIC90 (Proteus mirabilis [43]): 8 µg/mL
- Activity (Klebsiella pneumoniae [44]): 1.9%
- MIC50 (Haemophilus influenzae [45]): 1 µg/mL
- MIC90 (Haemophilus influenzae [45]): 2 µg/mL
- Activity (Acinetobacter [46]): 74.5%
- MIC50 (Escherichia coli [47]): 0.5 µg/mL
- MIC90 (Escherichia coli [47]): 2 µg/mL
- Activity (Escherichia coli [48]): 46%
